Data: paper PMC12263422, “Cryo-EM structure of the human THIK-1 K2P K^+ channel reveals a lower Y gate regulated by lipids and anesthetics” (Nature Structural & Molecular Biology, 2025)
Values joined by “and” are separate entries in the source; they are usually repeats but may differ in a detail not shown here. Identical values can stand only once. Blank lines part the entries; values can stand above or below the compound they belong to.

Biological target: T1, THIK-1 Y273A (Homo sapiens, UniProt Q9HB14, Y273A)
T1 construct: expressed in transfected cells; host or cells: Xenopus oocytes (mRNA injection)
T1 sequence (Q9HB14 1-408 Y273A): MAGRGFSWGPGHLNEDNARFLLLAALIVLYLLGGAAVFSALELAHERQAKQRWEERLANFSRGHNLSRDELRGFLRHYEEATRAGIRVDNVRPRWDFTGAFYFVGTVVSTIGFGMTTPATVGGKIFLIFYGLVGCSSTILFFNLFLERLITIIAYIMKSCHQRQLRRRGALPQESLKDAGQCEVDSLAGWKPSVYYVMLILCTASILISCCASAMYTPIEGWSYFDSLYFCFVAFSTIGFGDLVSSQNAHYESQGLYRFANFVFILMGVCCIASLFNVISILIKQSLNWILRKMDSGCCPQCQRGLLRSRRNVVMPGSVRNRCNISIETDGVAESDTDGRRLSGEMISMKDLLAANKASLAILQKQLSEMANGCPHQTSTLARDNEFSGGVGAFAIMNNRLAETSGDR
Assay: Inside-out excised patch recordings, oocytes, THIK-1 Y273A mutant
Format: cell-based
Design: Halothane inhibition: concentration or dose not given beside the values
Text: Human K2P13.1 THIK-1 (GenBank accession number: NM_022054) and human K2P12.1 THIK-2 (NM_022055.1) were used in this study. For functional expression studies, the respective K^+ channel subtype coding sequences were subcloned into the oocyte expression vector pSGEM or the dual-purpose expression vector pFAW[41] and verified by sequencing. All mutant channels were obtained by site-directed mutagenesis and verified by sequencing. To increase surface expression and macroscopic currents, measurements of THIK-2 channels used a mutated ER retention motif, (R11A R12A R14A R15A R16A; THIK-2*)[20]. Vector DNA was linearized with NheI or MluI, and mRNA was synthesized in vitro using the SP6 or T7 AmpliCap Max High Yield Message Maker Kit (Cellscript, USA) or HiScribe T7 ARCA mRNA Kit (New England Biolabs).
Two-electrode voltage–clamp (TEVC) studies were performed in Xenopus oocytes. All animal use conformed to the Guide for the Care and Use of Laboratory Animals (NIH Publication 85–23), and all experiments using Xenopus toads were approved by the local ethics panels. Oocytes were stored at 17 °C in ND96 recording solution composed of (in mM): 96 NaCl, 2 KCl, 1.8 CaCl2, 1 MgCl2, 5 HEPES (pH 7.5 adjusted with NaOH and HCl), supplemented with Na-pyruvate (275 mg L^–1), theophylline (90 mg L^–1) and gentamicin (50 mg L^–1). Oocytes were injected with 1 ng mRNA for WT or mutant channels, and were incubated for 24–48 h at 17 °C. Two-electrode voltage clamp recordings were then performed as previously described[42],[43]. For macroscopic patch–clamp measurements, oocytes were obtained as described above incubated at 17 °C in a solution containing (mM): 54 NaCl, 30 KCl, 2.4 NaHCO3, 0.82 MgSO4 ×7 H2O, 0.41 CaCl2, 0.33 Ca(NO3)2 ×4 H2O and 7.5 TRIS (pH 7.4 adjusted with NaOH and HCl) for 1–4 days before use. Excised patch recordings in inside-out configuration conditions were performed at room temperature. […] Intracellular bath solutions and compounds were applied to the cytoplasmic side of excised patches for the various K^+ channels through a gravity flow multi-barrel pipette system. The intracellular solution had the following composition (in mM): 120 KCl, 10 HEPES, 2 EGTA and 1 pyrophosphate (pH adjusted with KOH and HCl). Currents were recorded with an EPC10 amplifier (HEKA Electronics) and sampled at 10 kHz or higher, with filtering set to 3 kHz (–3 dB) or higher, as appropriate for sampling rate. For measurements of GPCR activation, whole-cell currents were recorded for THIK-1 in transiently transfected HEK-293 cells. Cells were stimulated by a ramp protocol between −100 and +60 mV (holding potential, −80 mV). The pipette solution was composed of (in mM): 140 KCl, 2 MgCl2, 1 CaCl2, 2.5 EGTA and 10 HEPES (pH 7.3 adjusted with KOH and HCl). The extracellular bath solution had the following composition (in mM): 135 NaCl, 5 KCl, 2 MgCl2, 2 CaCl2, 10 glucose and 10 HEPES pH (pH 7.3 adjusted with NaOH and HCl). Oxotremorine M (Oxo-M) was added to extracellular bath solution to obtain the final concentration. Single-channel currents were recorded with an Axopatch 200B amplifier through a Digidata 1440A digitizer (Molecular Devices). Data were filtered at 2 kHz and recorded at a 200-kHz sampling rate with the program Clampex (Molecular Devices). Pipette solution and bath solution for cell-attached recordings contained (in mM): 140 KCl, 2 MgCl2, 1 CaCl2 and 10 HEPES (pH 7.4 adjusted with KOH and HCl). For inside-out recordings, the bath solution contained (in mM): 140 KCl, 2 MgCl2, 1 CaCl2 and 10 HEPES (pH 7.2 adjusted with KOH and HCl). All experiments were conducted at room temperature.
TPenA, linoleic acid, L-α-phosphatidylinositol 4,5-bisphosphate (brain PI(4,5)P2, PIP2) (Sigma-Aldrich and Merck) and oleoyl-CoA (LC-CoA 18:1) (Avanti Polar Lipids) were prepared as stocks (1–100 mM) in DMSO, stored at −80 °C and diluted to the final concentration in the intracellular recording solution. Oxo-M (Tocris Bioscience,) was prepared as 50 mM stock in H2O. […]

inhibition at 3000 µM (3.0 mM halothane, Y273A, mean): 27.2%
Halothane inhibition (THIK-1 Y273A, 4 K+ ex., mean): 47.43%
Halothane inhibition (THIK-1 Y273A, 120 K+ ex., mean): 50.83%
Structure (SMILES): FC(F)(F)C(Cl)Br (stereo not drawn) [halothane]
Inhibition (%) (3.0 mM halothane, Y273A, individual recordings): 24.640% and 18.199% and 20.441% and 32.359% and 23.062% and 35.325% and 35.762% and 32.640% and 40.661% and 24.150% and 21.311% and 24.444% and 21.407% and 27.084%
Halothane inhibition (THIK-1 Y273A, 4 K+ ex., individual recordings): 48.800% and 50.390% and 50.850% and 54.290% and 50.150% and 44.140% and 43.970% and 46.310% and 43.270% and 42.110%
Halothane inhibition (THIK-1 Y273A, 120 K+ ex., individual recordings): 50.140% and 54.850% and 53.810% and 41.990% and 54.110% and 49.130% and 50.870% and 49.910% and 52.660%

inhibition at 242 µM (isoflurane 0.242 mM, THIK-1 Y273A): 9.07%
inhibition at 485 µM (isoflurane 0.485 mM, THIK-1 Y273A): 17.7%
inhibition at 2420 µM (isoflurane 2.42 mM, THIK-1 Y273A): 30.9%
inhibition at 4850 µM (isoflurane 4.85 mM, THIK-1 Y273A): 50.8%
inhibition at 24200 µM (isoflurane 24.2 mM, THIK-1 Y273A): 75%
Structure (SMILES): FC(F)OC(Cl)C(F)(F)F (stereo not drawn) [Isoflurane, isoflurane]
Inhibition (%) (4.9 mM Isoflurane, Y273A, individual recordings): 36.141% and 64.534% and 64.029% and 67.231% and 69.534% and 60.746% and 65.223% and 43.937% and 15.847% and 38.113% and 40.962% and 42.936%

Structure (SMILES): CCCCC[N+](CCCCC)(CCCCC)CCCCC [TPenA, tetrapentylammonium]
Normalized currents (TPenA 0.1 µM, THIK-1 Y273A): 1.00
Normalized currents (TPenA 1 µM, THIK-1 Y273A): 0.96
Normalized currents (TPenA 4 µM, THIK-1 Y273A): 0.84
Normalized currents (TPenA 15.6 µM, THIK-1 Y273A): 0.65
Normalized currents (TPenA 62.5 µM, THIK-1 Y273A): 0.41
Normalized currents (TPenA 250 µM, THIK-1 Y273A): 0.19
Normalized currents (TPenA 1000 µM, THIK-1 Y273A): 0.07
Normalized currents (TPenA 4000 µM, THIK-1 Y273A): 0.03
τ of 1 mM TPenA block (Y273A, individual recordings): 0.054 s and 0.134 s and 0.071 s and 0.075 s and 0.076 s and 0.081 s and 0.059 s and 0.121 s and 0.057 s and 0.060 s
τ of 1 mM TPenA release (Y273A, individual recordings): 0.946 s and 0.858 s and 0.474 s and 1.777 s and 0.915 s and 1.232 s and 0.747 s and 0.935 s and 0.998 s and 1.301 s
τ of 1 mM TPenA block (Y273A, mean): 0.08 s
τ of 1 mM TPenA release (Y273A, mean): 1.02 s

inhibition at 240 µM (0.24 mM Sevoflurane, Y273A, mean): 26.2%
inhibition at 23 µM (THIK-1 Y273A, 0.023 mM sevoflurane): 6.96%
inhibition at 47 µM (THIK-1 Y273A, 0.047 mM sevoflurane): 10.4%
inhibition at 468 µM (THIK-1 Y273A, 0.468 mM sevoflurane): 38.6%
inhibition at 2340 µM (THIK-1 Y273A, 2.34 mM sevoflurane): 62.5%
Structure (SMILES): FCOC(C(F)(F)F)C(F)(F)F [Sevoflurane, sevoflurane]
Inhibition (%) (0.24 mM Sevoflurane, Y273A, individual recordings): 39.37% and 26.75% and 26.20% and 15.99% and 28.93% and 17.93% and 28.11%
